≈ marks a conversion by molar mass, not a printed value.
Tests used:
[1] = tested on: outer hair cells (OHC) in the inner ear; assay: Immunohistochemical experiments: dying of outer hair cells after acoustic trauma; format: in vivo; conditions: guinea pig, intratympanic, total 0.105 mg per ear, day 14
Protocol: (§1) To induce an acoustic trauma, guinea pigs were anesthetized with 60 mg/kg ketamine and 8 mg/kg xylazine. Then Bepanten ointment (Bayer) was administered to the eyes and the animal was put in a soundproof chamber. A calibrated speaker was placed directly above the head of the animal, wherein it was set to emit a half octave band, centered around 8 kHz, with a volume of 110 dB for duration of 30 minutes.
The thermosensitive, liquid mixture was administered under view by a Hamilton syringe directly in front of the round window membrane of the middle ear (10 μL). The first dose 6-fluoro-9-methyl-β-carboline (e.g. 0.07 mg) was administered one hour after the acoustic trauma in a concentration of 0.007 mg/μL and the second dose 6-fluoro-9-methyl-β-carboline (0.035 mg in a volume of 5 μL) on day 3. Here, only one ear per animal was treated, while the second ear served as intra-individual control. The control here is particularly abbreviated to “contr.”. In comparative experiments it was found, that administration of just an active agent vehicle (hydrogel) has no effect in comparison to a fully untreated ear. For each active agent (including the controls) four guinea pigs were examined.
On day 14 after the acoustic trauma the region of the ear was dissected so that it contained the cochlea. […] In this way the sound induced damage can be localized and quantified. […]

[2] = tested on: BDNF (brain derived neurotrophic factor); assay: Examination on cellular level: concentration of BDNF; format: cell-based
physchem = conditions: water
Protocol: Furthermore, the solubility of both compounds in water was determined by preparing concentration series of both compounds in water at room temperature. The concentration at which the compound was barely soluble was determined by external calibration. The corresponding concentration was quantified by HPLC.

hearing threshold = assay: Acoustically evoked potentials: hearing threshold after acoustic trauma; format: in vivo; conditions: guinea pig, total 0.18 mg per ear
Protocol: as §1, with “trigger” for “induce”
As measure for evaluation of the hearing threshold of the guinea pig acoustically evoked potentials were measured. Therefore, the electrophysiological activity of the nerve cells in the brain stem that forward impulses from the inner ear was derived after sonication of the ear with 8, 11.3, 16, 22.6 and 32 kHz. The sonification was carried out ascendingly from 0 dB to 90 dB in single steps of 5 dB.
The measurement was carried out 3 days before the acoustic trauma (D-3), 30 minutes after the acoustic trauma (D0) as well as 14 days after the acoustic trauma (D14).
Per animal one ear was not treated and used as intra-individual control (hierin partly abbreviated to “contr.”) and the second ear was treated with 6-fluoro-9-methyl-β-carboline. Therefore, one hour after the acoustic trauma a dose of 0.12 mg 6-fluoro-9-methyl-β-carboline (in a hydrogel as vehicle) was administered intratympanically. 3 days after the acoustic trauma a further intratympanic administration of 0.06 mg 6-fluoro-9-methyl-β-carboline was carried out. The measurements were conducted on four guinea pigs (n=4).
Afterwards, the remaining shift of hearing threshold (also named as permanent shift of hearing threshold) was determined from the measured values before the acoustic trauma (D-3) and after 14 days (D14). From the measured values directly after the acoustic trauma (D0) and after 14 days (D14) the recovery from the trauma (D0-D14) was also determined.
Analogous to the above performed experiments with 6-fluoro-9-methyl-β-carboline, also corresponding experiments with 9-methyl-β-carboline were performed. The experimental procedure was nearly identical, wherein of course 9-methyl-β-carboline instead of 6-fluoro-9-methyl-β-carboline was used. The total dose of 9-methyl-β-carboline was here 0.2 mg and 0.35 mg per ear, respectively.

[3] = guinea pig, in vivo
Protocol: For better evaluation of half times of 9-methyl-β-carboline (9MβC), 6-fluoro-9-methyl-β-carboline (6F9MβC) and 7-fluoro-9-methyl-β-carboline (7F9MβC) in animal organism and more precisely in perilymph (the notified site of action), experiments with guinea pigs were conducted. Therefore, the respective active agent (in total 1.4 mg active agent per ear), packed in 40 μl of a hydrogel (18% Poloxamer 407 and 0.6% alginate), was administered at once in front of the membrane of the round window of narcotized guinea pigs. […] After expiry of the desired time (20 min, 2 h, 8 h or 24 h), each time 5 μL perilymph were removed under anesthesia from the top of the cochlea (apex). Subsequently, the animal was killed. Per each time (20 min, 2 h, 8 h or 24 h) measured values were taken of at least ears and averaged.
The concentration of the corresponding active agent in perilymph samples was determined by high-performance liquid chromatography (HPLC, partly also named as high-pressure liquid chromatography) and measurement of auto fluorescence of the respective active agent. For HPLC the eluent consisted to 45% of 90% acetonitrile and to 55% of ammonium acetate (40 mM, pH<5). The flow rate was 0.4 mL/min and injection volume was 10 μL. Each sample was diluted with 60% methanol, if the signal was too strong. After each run the injection needle was washed with 100% isopropanol. The detection limit was 20 fmol/L.
From the determined active agent concentrations the elimination half times were then calculated.

## Cn1c2ccc(F)cc2c2ccncc21 [6F9MβC, 6-fluoro-9-methyl-β-carboline]
[1]
  acoustic trauma-induced dying of outer hair cells: could be prevented
[2]
  increase of the concentration of BDNF: up to three times
physchem
  solubility: 29.7 µg/mL (≈ 148 µM)
Hearing threshold; 8 kHz
  improved recovery of hearing threshold (D0-D14) vs untreated ear: approximately 5 dB
Hearing threshold; 11.3 kHz
  improved recovery of hearing threshold (D0-D14) vs untreated ear: ~25 dB
  reduction of the hearing threshold (permanent shift D14-D-3) vs untreated control: approximately 20 dB
Hearing threshold; 16 kHz
  improved recovery of hearing threshold (D0-D14) vs untreated ear: ~20 dB
  reduction of the hearing threshold (permanent shift D14-D-3) vs untreated control: ~30 dB
[3]
  elimination half time: approximately 6.0 h

Source: US9630964B2, “Fluoro-9-methyl-β-carbolines” (priority 2013, dated 2017)
